Measurements reported in US9174973B2, “Crystalline forms of azilsartan and preparation and uses thereof” (SUNSHINE LAKE PHARMA CO., LTD., priority 2011, dated 2015).

What was measured:
[1] = Light Stability of crystalline form A; type: physicochemical; settings: light 4500+/−500 Lux
Experimental: A layer of crystalline form A having a thickness of less than 5 mm was place in a flat weighing bottle. […] Samples were taken out at 6 days, 11 days and 16 days and examined for purity by HPLC, appearance and crystalline form. The conditions for the HPLC measurements are as shown below. • Instrument: Agilent 1200HPLC • Column: Agilent Eclipse XDB-C18 4.6*150 mm, 5 μm • Detection wavelength: 254 nm • Mobile phase: A phase 10 mM ammonium acetate (pH=3.5) and B phase acetonitrile [table]

[2] = Humidity Stability of crystalline form A; type: physicochemical; settings: 25° C., RH 90%+/−5%
Experimental: A layer of crystalline form A having a thickness of less than 5 mm was place in a flat weighing bottle. […] The conditions for the HPLC measurements are as shown below. • Instrument: Agilent 1200HPLC • Column: Agilent Eclipse XDB-C18 4.6*150 mm, 5 μm • Detection wavelength: 254 nm • Mobile phase: A phase 10 mM ammonium acetate (pH=3.5) and B phase acetonitrile [table]

CCOc1nc2cccc(C(=O)O)c2n1Cc1ccc(-c2ccccc2-c2noc(=O)[nH]2)cc1 [Form A]
RT* (min.) 30.66 (HPLC peak) ([1]; 6 days): 0.02% | Appearance ([1]; 11 days): Light yellow | Crystalline form ([1]; 11 days): Form A | RT* (min.) 2.39 (HPLC peak) ([1]; 11 days): 0.04% | RT* (min.) 2.89 (HPLC peak) ([1]; 11 days): 0.14% | RT* (min.) 3.9 (HPLC peak) ([1]; 11 days): 0.61% | RT* (min.) 5.79 (HPLC peak) ([1]; 11 days): 0.02 | RT* (min.) 13.2 (azilsartan peak, purity by HPLC) ([1]; 11 days): 98.71% | RT* (min.) 20.55 (HPLC peak) ([1]; 11 days): 0.07% | RT* (min.) 22.8 (HPLC peak) ([1]; 11 days): 0.06% | RT* (min.) 23.6 (HPLC peak) ([1]; 11 days): 0.03% | RT* (min.) 26.96 (HPLC peak) ([1]; 11 days): 0.01% | RT* (min.) 27.5 (HPLC peak) ([1]; 11 days): 0.29% | RT* (min.) 28.81 (HPLC peak) ([1]; 11 days): 0.01% | RT* (min.) 30.66 (HPLC peak) ([1]; 11 days): 0.03% | Appearance ([1]; 16 days): Light yellow | Crystalline form ([1]; 16 days): Form A | RT* (min.) 2.39 (HPLC peak) ([1]; 16 days): 0.05% | RT* (min.) 2.89 (HPLC peak) ([1]; 16 days): 0.22% | RT* (min.) 3.9 (HPLC peak) ([1]; 16 days): 0.34% | RT* (min.) 5.79 (HPLC peak) ([1]; 16 days): — (“—” refers to the peak area is less than 3000 or there is no peak) | RT* (min.) 13.2 (azilsartan peak, purity by HPLC) ([1]; 16 days): 99.24% | RT* (min.) 20.55 (HPLC peak) ([1]; 16 days): — (“—” refers to the peak area is less than 3000 or there is no peak) | RT* (min.) 22.8 (HPLC peak) ([1]; 16 days): 0.04% | RT* (min.) 23.6 (HPLC peak) ([1]; 16 days): 0.01% | RT* (min.) 26.96 (HPLC peak) ([1]; 16 days): — (“—” refers to the peak area is less than 3000 or there is no peak) | RT* (min.) 27.5 (HPLC peak) ([1]; 16 days): 0.09% | RT* (min.) 28.81 (HPLC peak) ([1]; 16 days): — (“—” refers to the peak area is less than 3000 or there is no peak) | RT* (min.) 30.66 (HPLC peak) ([1]; 16 days): — (“—” refers to the peak area is less than 3000 or there is no peak) | Appearance ([2]; 6 days): White or off- | Crystalline form ([2]; 6 days): Form A | RT* (min.) 2.39 (HPLC peak) ([2]; 6 days): — (“—” refers to the peak area is less than 3000 or there is no peak) | RT* (min.) 2.89 (HPLC peak) ([2]; 6 days): 0.02% | RT* (min.) 3.9 (HPLC peak) ([2]; 6 days): 0.31% | RT* (min.) 5.79 (HPLC peak) ([2]; 6 days): 0.01 | RT* (min.) 13.2 (azilsartan peak, purity by HPLC) ([2]; 6 days): 99.48% | RT* (min.) 20.55 (HPLC peak) ([2]; 6 days): — (“—” refers to the peak area is less than 3000 or there is no peak) | RT* (min.) 22.8 (HPLC peak) ([2]; 6 days): 0.05% | RT* (min.) 23.6 (HPLC peak) ([2]; 6 days): 0.02% | RT* (min.) 26.96 (HPLC peak) ([2]; 6 days): — (“—” refers to the peak area is less than 3000 or there is no peak) | RT* (min.) 27.5 (HPLC peak) ([2]; 6 days): 0.07% | RT* (min.) 28.81 (HPLC peak) ([2]; 6 days): — (“—” refers to the peak area is less than 3000 or there is no peak) | RT* (min.) 30.66 (HPLC peak) ([2]; 6 days): 0.03% | Appearance ([2]; 11 days): White or off- | Crystalline form ([2]; 11 days): Form A | RT* (min.) 2.39 (HPLC peak) ([2]; 11 days): — (“—” refers to the peak area is less than 3000 or there is no peak) | RT* (min.) 2.89 (HPLC peak) ([2]; 11 days): 0.02% | RT* (min.) 3.9 (HPLC peak) ([2]; 11 days): 0.33% | RT* (min.) 5.79 (HPLC peak) ([2]; 11 days): — (“—” refers to the peak area is less than 3000 or there is no peak) | RT* (min.) 13.2 (azilsartan peak, purity by HPLC) ([2]; 11 days): 99.51% | RT* (min.) 20.55 (HPLC peak) ([2]; 11 days): — (“—” refers to the peak area is less than 3000 or there is no peak) | RT* (min.) 22.8 (HPLC peak) ([2]; 11 days): 0.04% | RT* (min.) 23.6 (HPLC peak) ([2]; 11 days): 0.02% | RT* (min.) 26.96 (HPLC peak) ([2]; 11 days): — (“—” refers to the peak area is less than 3000 or there is no peak) | RT* (min.) 27.5 (HPLC peak) ([2]; 11 days): 0.06% | RT* (min.) 28.81 (HPLC peak) ([2]; 11 days): — (“—” refers to the peak area is less than 3000 or there is no peak) | RT* (min.) 30.66 (HPLC peak) ([2]; 11 days): 0.03% | Appearance ([2]; 16 days): White or off- | Crystalline form ([2]; 16 days): Form A | RT* (min.) 2.39 (HPLC peak) ([2]; 16 days): — (“—” refers to the peak area is less than 3000 or there is no peak) | RT* (min.) 2.89 (HPLC peak) ([2]; 16 days): 0.01% | RT* (min.) 3.9 (HPLC peak) ([2]; 16 days): 0.32% | RT* (min.) 5.79 (HPLC peak) ([2]; 16 days): — (“—” refers to the peak area is less than 3000 or there is no peak) | RT* (min.) 13.2 (azilsartan peak, purity by HPLC) ([2]; 16 days): 99.52% | RT* (min.) 20.55 (HPLC peak) ([2]; 16 days): — (“—” refers to the peak area is less than 3000 or there is no peak) | RT* (min.) 22.8 (HPLC peak) ([2]; 16 days): 0.04% | RT* (min.) 23.6 (HPLC peak) ([2]; 16 days): 0.01% | RT* (min.) 26.96 (HPLC peak) ([2]; 16 days): — (“—” refers to the peak area is less than 3000 or there is no peak) | RT* (min.) 27.5 (HPLC peak) ([2]; 16 days): 0.05% | RT* (min.) 28.81 (HPLC peak) ([2]; 16 days): — (“—” refers to the peak area is less than 3000 or there is no peak) | RT* (min.) 30.66 (HPLC peak) ([2]; 16 days): 0.02%
